Source: article PMC5675004 (Cancer cell, 2015)

How the values were obtained:
[1] = test system: PPT CGNPs expressing vismodegib-resistant SMO mutants; test: PPT CGNP proliferation, methyl-[3H]-thymidine incorporation; assay type: cell-based, mouse; settings: for proliferation in the presence of SMO inhibitor: 500 nM of compound, SMO-mutant expressing cells
[2] = test system: PPT CGNPs infected with SMO-WT and Cre; test: as above; assay type: cell-based, mouse; settings: for proliferation in the presence of SMO inhibitor: 500 nM of compound
SMO-N219D = SMO-N219D (Homo sapiens, UniProt Q99835, N219D); test: Gli-luciferase based Hh reporter assay; assay type: cell-based; settings: 1 μM vismodegib, C3H10T½ cells
Sequence of SMO-N219D (Q99835 28-787 N219D): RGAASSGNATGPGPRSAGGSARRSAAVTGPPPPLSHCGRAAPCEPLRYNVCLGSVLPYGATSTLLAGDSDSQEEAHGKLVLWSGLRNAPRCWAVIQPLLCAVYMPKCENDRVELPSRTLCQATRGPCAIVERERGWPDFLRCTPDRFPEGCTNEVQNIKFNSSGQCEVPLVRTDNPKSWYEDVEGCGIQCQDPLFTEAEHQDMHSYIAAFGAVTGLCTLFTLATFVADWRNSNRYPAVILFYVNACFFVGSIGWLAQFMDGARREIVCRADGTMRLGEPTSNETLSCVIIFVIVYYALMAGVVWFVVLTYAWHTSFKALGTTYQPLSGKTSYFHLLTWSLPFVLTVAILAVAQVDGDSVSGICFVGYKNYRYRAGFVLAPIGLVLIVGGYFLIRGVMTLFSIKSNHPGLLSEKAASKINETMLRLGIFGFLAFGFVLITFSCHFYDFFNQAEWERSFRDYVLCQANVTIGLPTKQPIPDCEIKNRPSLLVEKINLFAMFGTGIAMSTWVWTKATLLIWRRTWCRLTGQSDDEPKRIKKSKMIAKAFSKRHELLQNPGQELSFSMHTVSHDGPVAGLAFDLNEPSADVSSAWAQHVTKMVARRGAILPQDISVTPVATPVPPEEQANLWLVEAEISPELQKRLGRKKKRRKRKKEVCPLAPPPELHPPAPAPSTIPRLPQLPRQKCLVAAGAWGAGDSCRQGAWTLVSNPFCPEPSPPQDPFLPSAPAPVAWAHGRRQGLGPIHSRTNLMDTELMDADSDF

SMO-D384N = SMO-D384N (Homo sapiens, UniProt Q99835, D384N); test: Gli-luciferase based Hh reporter assay; assay type: cell-based; settings: 1 μM vismodegib, C3H10T½ cells
Sequence of SMO-D384N (Q99835 28-787 D384N): as the sequence (Q99835 28-787 N219D) above, with D192N, D357N counted along it

SMO-S387N = SMO-S387N (Homo sapiens, UniProt Q99835, S387N); test: Gli-luciferase based Hh reporter assay; assay type: cell-based; settings: 1 μM vismodegib, C3H10T½ cells
Sequence of SMO-S387N (Q99835 28-787 S387N): as the sequence (Q99835 28-787 N219D) above, with D192N, S360N counted along it

SMO-I408V = SMO-I408V (Homo sapiens, UniProt Q99835, I408V); test: [3H]-vismodegib binding to transfected HEK-293 cells; settings: compared with SMO-WT at similar cell surface levels
Sequence of SMO-I408V (Q99835 28-787 I408V): as the sequence (Q99835 28-787 N219D) above, with D192N, I381V counted along it

activating SMO mutants = test: as above; settings: all activating mutants tested, cell surface expression comparable to SMO-WT
[3] = test system: PPT CGNPs infected with SMO DBP mutants; test: PPT CGNP proliferation, methyl-[3H]-thymidine incorporation; assay type: cell-based, mouse; settings: high levels of vismodegib (>1 μM)
[4] = test system: PPT CGNPs infected with SMO-C469Y; test: as above; assay type: cell-based, mouse; settings: 5 μM vismodegib
[5] = test system: SMO-T241M expressing CGNPs; test: as above; assay type: cell-based, mouse; settings: vismodegib dose response after removal of SHH ligand
[6] = test system: SMO-A459V expressing CGNPs; test: as above; assay type: cell-based, mouse; settings: vismodegib dose response after removal of SHH ligand
[7] = test system: SMO-W535L expressing CGNPs; test: as above; assay type: cell-based, mouse; settings: vismodegib dose response after removal of SHH ligand
SMO-D473H = settings: mutation from relapsed metastatic MB; ref Yauch et al., 2009; cited from earlier work
advanced BCC patients = settings: ref Chang and Oro, 2012; cited from earlier work

Cc1sc2c(c1C)C(c1ccc(Cl)cc1)=N[C@@H](CC(=O)OC(C)(C)C)c1nnc(C)n1-2 [JQ1]
proliferation in the presence of bromodomain inhibitor ([1]; 1 μM JQ1): reduced proliferation

Cc1c(C(=O)Nc2ccc(N3C[C@@H](C)O[C@@H](C)C3)nc2)cccc1-c1ccc(OC(F)(F)F)cc1 [LDE225, sonidegib]
proliferation in the presence of SMO inhibitor [2]: similarly inhibited the proliferation | proliferation in the presence of SMO inhibitor [1]: continued to proliferate, albeit to differing extents

CN(C(=O)c1ccc(F)cc1C(F)(F)F)C1CCN(c2nnc(-c3ccnn3C)c3ccccc23)CC1 [LY2940680]
proliferation in the presence of SMO inhibitor [2]: similarly inhibited the proliferation | proliferation in the presence of SMO inhibitor [1]: continued to proliferate, albeit to differing extents

CS(=O)(=O)c1ccc(C(=O)Nc2ccc(Cl)c(-c3ccccn3)c2)c(Cl)c1 [vismodegib]
sensitivity to vismodegib compared to SMO-WT (SMO-N219D): reduced sensitivity | sensitivity to vismodegib compared to SMO-WT (SMO-D384N): reduced sensitivity | sensitivity to vismodegib compared to SMO-WT (SMO-S387N): reduced sensitivity | [3H]-vismodegib binding (SMO-I408V): impaired vismodegib binding | vismodegib binding (activating SMO mutants): impaired vismodegib binding | IC50 ([2]; Mus musculus, read-out: IC50, proliferation): ~22 nM | concentration at which proliferation was maximally inhibited ([2]; after removal of SHH ligand): 100 nM | proliferation in the presence of vismodegib [3]: continuing to proliferate at high levels of vismodegib | proliferation in the presence of vismodegib [4]: continued to proliferate at near untreated levels | proliferation in the presence of vismodegib [5]: continued to proliferate at high concentrations of vismodegib | proliferation in the presence of vismodegib [6]: continued to proliferate at high concentrations of vismodegib | proliferation in the presence of vismodegib [7]: continued to proliferate at high concentrations of vismodegib | drug binding in vitro (SMO-D473H): abrogate drug binding | estimated incidence of secondary, or acquired, resistance in BCC (advanced BCC patients): ~ 20 % per year
